One substance from patent US12569534B2, “Therapeutic nanoparticles by coacervate complexation and their use for treating bacteria” (priority 2018, dated 2026) can be followed below.

{Cy5} = Cy5 fluorescent dye; d = 2'-deoxy (DNA); m = 2'-O-methyl Bounds are passed on as bounds.

For this data set, the system named is E. Coli ATCC 25922. Briefly: MIC and MBC of different treatments, Example 3. In kind it is cell-based. As to the method: Reference bacterial stains were purchased from ATCC. Clinical isolates of carbapenem-resistant bacteria were obtained from National Health Research Institutes (NHRI) and Tri-Service General Hospital (TSGH). MIC is defined as the lowest concentration of antibiotics required to inhibit the growth of bacteria. MBC is defined as the lowest concentration of antibiotics required to eradicate microorganisms. The MICs of CS and the CS NPs were determined using a broth microdilution method. Bacterial suspensions were adjusted to a turbidity of McFarland 0.5±0.05 and cultured overnight with different concentrations of CS or CS NPs. A control group without antimicrobial treatment was prepared as a reference. Following overnight incubation, solution turbidity was determined by visual inspection. Culture wells with no observable turbidity were further sub-cultured for MBC evaluation. Solutions from the clear wells were deposited onto an agar plate and cultured overnight to determine the MBCs.

Consider “ASOftsZ: antisense oligonucleotide of ftsZ DNA fragment; Cy5-mCmCmAmU-TG-GTT-CAA-A-mCmAmUmA, m_: 2′ O-methyl bases (antisense CCAUTGGTTCAAACAUA; sugars from the 5' end m4 d9 m4, 5' {Cy5}, backbone and methylation of C not given here)”, for which the MBC is more than 2 µg/mL and the MIC is more than 2 µg/mL.
